Measurements published in patent publication US20250223628A1, “METHODS OF IMPROVING SURVIVAL AND ELIMINATING TREATMENT-LIMITING TOXICITIES OF DICHLOROACETATE IN PATIENTS WITH PYRUVATE DEHYDROGENASE COMPLEX DEFICIENCY” (SAOL INTERNATIONAL DEVELOPMENT LTD., priority 2024, published 2025).
Like-named read-outs stand apart in the source and are kept apart here.

Key:
patients with PDCD [1] = assay: Prospective, randomized, double-blind, placebo-controlled crossover study with GSTZ1 haplotype-based DCA dosing and open-label extension; format: in vivo, human
Procedure: A prospective, randomized, double-blind, placebo-controlled crossover study was conducted in patients with PDCD. This study was the first study to prospectively use GSTZ1 haplotype testing to identify a dose that may help to mitigate the risk of peripheral neuropathy from chronic administration of DCA. These patients were treated with either DCA or placebo for 4 months, provided placebo for a 1-month washout period and then were placed on the placebo or DCA, whichever they had not taken prior. Patients then had the option to continue on open-label DCA until the ultimate completion of the study or regulatory approval. 34 PDCD patients were recruited into the study. 7 (21%) of these patients were prospectively identified as “slow metabolizers”. Rather than having a dose of 25 mg/kg/day, these patients were provided DCA doses at 12.5 mg/kg/day. Both dosing groups took DCA in two equal, weight-based doses. This was the first prospective study completed using the haplotype testing and conducted solely in the PDCD patient population.
The study had anticipated a 20% dropout rate due to death or peripheral neuropathy.

patients with PDCD [2] = assay: Survival analysis of DCA treatment cohort versus DeBrosse natural history cohort; format: in vivo, human; conditions: for Adjusted Odds Ratio (95% CI): DCA vs natural history
Procedure: As a result, an analysis procedure was identified that used the data available in the DeBrosse natural history study to assess whether or not DCA extended life. The analysis was conducted to answer the following questions: • a. Did the year of birth have any effect on survival? For example, has standard of care improved. • b. Is the primary driver of survival differences from natural history driven by the ketogenic diet, the current standard of care, although empirical approach to managing PDCD patients? • c. Once the population is controlled for an index age, gender and age of disease onset, does DCA provide a survival benefit? • d. Once the population is controlled for an index age and age of disease onset, does DCA provide a survival benefit? • e. Once the population has the maximum duration of follow-up, including with patients that discontinued treatment, does DCA provide a survival benefit?
After accounting for two patients with multiple exclusion criteria, 34 patients (14 males and 20 females) from the DeBrosse study remain for potential matching for the current analyses.
Baseline characteristics related to drug and non-drug treatment, age at the earliest recorded of first related symptom, initiation of the ketogenic diet or diagnosis and other baseline demographics were compared for each analysis. It was notable that the Phase III cohort had more females. This was controlled by conducting a 1:1 matched cohort in the primary analysis that requires gender matching.
A summary of all analyses conducted with both Kaplan-Meier log-rank statistics and hazard/odds ratio reductions are provided below: […]

[3] = cited from earlier work
[4] = system: patients with congenital lactic acidosis (CLA); conditions: 25 mg/kg broken into two daily doses, cited from earlier work
[5] = Abdelmak 2013, Congenital Lactic Acidosis, 8 total patients
[6] = Dunbar 2014, Recurrent Malignant Brain Tumor, 8 total patients
[7] = Kaufmann 2006, MELAS, 15 total patients
[8] = Michelakis 2017, Pulmonary Arterial Hypertension, 20 total patients
[9] = Stacpoole 2008, Congenital Lactic Acidosis, 36 total patients

O=C(O)C(Cl)Cl [DCA, Dichloroacetate]
Completion of the double-blind portion (patients with PDCD [1]; 34 PDCD patients, 25 or 12.5 mg/kg/day by haplotype): all of the patients completed | Dropouts for other reasons (patients with PDCD [1]; double-blind portion): zero | Events of peripheral neuropathy (patients with PDCD [1]; double-blind study): zero | Events of neuropathy possibly related to therapy (patients with PDCD [1]; open-label phase, occurred after 18 months of exposure): one | Adjusted Odds Ratio (95% CI) (patients with PDCD [2]; Full Cohort Comparison, multivariate P 0.0065): 0.014 | Adjusted Odds Ratio (95% CI) (patients with PDCD [2]; Matched on Age and Sex, Excluding 1980s Patients with Extended Follow-Up, multivariate P 0.0055): 0.023 | Adjusted Odds Ratio (95% CI) (patients with PDCD [2]; Matched on Age and Sex, Excluding 1980s Patients, multivariate P 0.0033): 0.0072 | Adjusted Odds Ratio (95% CI) (patients with PDCD [2]; Matched on Age, multivariate P 0.0012): 0.0071 | Adjusted Odds Ratio (95% CI) (patients with PDCD [2]; Matched on Sex and Follow-Up Duration, multivariate P 0.024): 0.026 | Adjusted Odds Ratio (95% CI) (patients with PDCD [2]; Primary Analysis with Extended Follow-Up, multivariate P 0.0029): 0.013 | Adjusted Odds Ratio (95% CI) (patients with PDCD [2]; Primary Analysis: Matched on Age and Sex, multivariate P 0.0061): 0.011 | DCA Treatment Cohort Mortality Rate (95% CI) (patients with PDCD [2]; Full Cohort Comparison, N 33, log rank P 0.003): 0.00 | DCA Treatment Cohort Mortality Rate (95% CI) (patients with PDCD [2]; Matched on Age and Sex with Replacement with Extended Follow-Up, N 31, log rank P 0.0443): 1.38 | DCA Treatment Cohort Mortality Rate (95% CI) (patients with PDCD [2]; Matched on Age and Sex with Replacement, N 31, log rank P 0.0295): 0.00 | DCA Treatment Cohort Mortality Rate (95% CI) (patients with PDCD [2]; Matched on Age and Sex with Unknown Onset Imputed at 0, N 28, log rank P 0.0273): 0.00 | DCA Treatment Cohort Mortality Rate (95% CI) (patients with PDCD [2]; Matched on Age and Sex with Unknown Onset Imputed at 0 with Extended Follow-Up, N 28, log rank P 0.0357): 1.55 | DCA Treatment Cohort Mortality Rate (95% CI) (patients with PDCD [2]; Matched on Age and Sex, Excluding 1980s Patients with Extended Follow-Up, N 25, log rank P 0.0899): 1.74 | DCA Treatment Cohort Mortality Rate (95% CI) (patients with PDCD [2]; Matched on Age and Sex, Excluding 1980s Patients, N 25, log rank P 0.0255): 0.00 | DCA Treatment Cohort Mortality Rate (95% CI) (patients with PDCD [2]; Matched on Age, N 32, log rank P 0.0019): 0.00 | DCA Treatment Cohort Mortality Rate (95% CI) (patients with PDCD [2]; Matched on Sex and Follow-Up Duration, N 28, log rank P 0.0211): 0.00 | DCA Treatment Cohort Mortality Rate (95% CI) (patients with PDCD [2]; Primary Analysis with Extended Follow-Up, N 28, log rank P 0.0357): 1.55 | DCA Treatment Cohort Mortality Rate (95% CI) (patients with PDCD [2]; Primary Analysis: Matched on Age and Sex, N 28, log rank P 0.0273): 0 | Peripheral Neuropathy Adverse Event Rate [3, 5]: 38% | Peripheral Neuropathy Adverse Events [3, 5]: 3 | Peripheral Neuropathy Adverse Event Rate [3, 6]: 25% | Peripheral Neuropathy Adverse Events [3, 6]: 2 | Peripheral Neuropathy Adverse Event Rate [3, 7]: 100% | Peripheral Neuropathy Adverse Events [3, 7]: 15 | Peripheral Neuropathy Adverse Event Rate [3, 8]: 25% | Peripheral Neuropathy Adverse Events [3, 8]: 5 | Peripheral Neuropathy Adverse Event Rate [3, 9]: 36% | Peripheral Neuropathy Adverse Events [3, 9]: 13 | Peripheral Neuropathy Adverse Events ([3]; Total of five studies, 87 total patients): 38 | Peripheral Neuropathy Adverse Event Rate ([3]; Total of several studies across multiple disease states, 87 total patients): 44% | Dose required for a similar pharmacokinetic exposure ([3]; slow metabolizer group of GSTZ1 haplotypes, fraction of the dose): roughly ½ | Recovery from peripheral neuropathy exhibited during DCA administration ([3]; time to recovery): ≤ 9 months | Patients who experienced peripheral neuropathy ([4]; double blind portion): 36% | Patients who experienced peripheral neuropathy ([4]; long-term extension arm): 38%
